Structures can show the parent of a compound that is named as a salt.
Tests used:
[1] = target: T1, HCN4 (Homo sapiens, UniProt Q9Y3Q4); experiment: HCN4 assay using PatchXpress 7000A (PX protocol, Example 25); assay type: cell-based; details: room temperature
T1 sequence (Q9Y3Q4 1-1203): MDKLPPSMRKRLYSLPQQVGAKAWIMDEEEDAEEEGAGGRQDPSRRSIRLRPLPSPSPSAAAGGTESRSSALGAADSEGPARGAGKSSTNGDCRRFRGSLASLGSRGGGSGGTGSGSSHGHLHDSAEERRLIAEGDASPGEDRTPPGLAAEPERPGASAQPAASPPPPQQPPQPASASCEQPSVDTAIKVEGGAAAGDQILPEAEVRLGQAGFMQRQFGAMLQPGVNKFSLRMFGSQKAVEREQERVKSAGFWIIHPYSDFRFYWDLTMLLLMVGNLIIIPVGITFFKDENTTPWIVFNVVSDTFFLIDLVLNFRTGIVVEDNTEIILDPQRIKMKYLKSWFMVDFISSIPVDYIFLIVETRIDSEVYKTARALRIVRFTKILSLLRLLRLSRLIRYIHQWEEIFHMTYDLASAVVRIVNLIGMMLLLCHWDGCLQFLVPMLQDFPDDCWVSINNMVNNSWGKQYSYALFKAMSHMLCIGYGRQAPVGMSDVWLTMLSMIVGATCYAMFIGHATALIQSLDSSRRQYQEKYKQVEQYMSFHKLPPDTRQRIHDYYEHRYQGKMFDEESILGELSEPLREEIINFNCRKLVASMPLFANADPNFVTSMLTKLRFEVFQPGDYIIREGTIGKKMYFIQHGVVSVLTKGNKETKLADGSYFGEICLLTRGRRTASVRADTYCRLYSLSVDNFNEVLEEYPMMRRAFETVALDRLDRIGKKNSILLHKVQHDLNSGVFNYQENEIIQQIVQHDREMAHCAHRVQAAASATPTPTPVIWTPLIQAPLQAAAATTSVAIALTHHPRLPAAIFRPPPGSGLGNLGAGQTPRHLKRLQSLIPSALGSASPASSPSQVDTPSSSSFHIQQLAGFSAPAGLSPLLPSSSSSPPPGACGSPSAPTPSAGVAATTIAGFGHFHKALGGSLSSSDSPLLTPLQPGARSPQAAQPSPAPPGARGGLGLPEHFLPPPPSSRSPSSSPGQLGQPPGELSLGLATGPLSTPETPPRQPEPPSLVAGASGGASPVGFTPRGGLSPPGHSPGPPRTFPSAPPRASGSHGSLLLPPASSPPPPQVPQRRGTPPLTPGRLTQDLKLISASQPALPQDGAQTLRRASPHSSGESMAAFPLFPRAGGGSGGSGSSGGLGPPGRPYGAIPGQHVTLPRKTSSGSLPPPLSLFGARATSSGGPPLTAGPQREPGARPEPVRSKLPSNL
Experimental: Example 25: Assay for HCN1 HCN2 and HCN4 Using PatchXpress 7000A
Solutions for recording HCN currents were:
The peak inward current measured at the end of the pulse to −110 mV (HCN1 and HCN2) or −130 mV (HCN4) was measured and any leak current subtracted to calculate the HCN current. The HCN current amplitude was measured after each control or compound addition and normalized to the control amplitude (Control A).
All experiments were performed at room temperature (approximately 22° C.).
Each test compound concentration was applied to the cell for seven (7) minutes, at which point the next cumulative concentration was applied.

[2] = test system: WT Black6 strain mice; experiment: Mouse neuropathic pain model (partial sciatic nerve ligation), von Frey filament; assay type: in vivo
Experimental: The model used was analogous to the model described in Seltzer Z, Dubner […] novel behavioural model of neuropathic pain disorders produced in rats by partial sciatic nerve injury, Pain 43: 205-218). […] Sci Transl Med 9: eaam6072. […] The mechanical pain threshold was measured by manual von Frey filament applied to the hind paw on the operated side, using the “up-down” method.

[3] = test system: guinea pigs with salicylate-induced tinnitus; experiment: Short-term (salicylate) tinnitus model, gap induced inhibition of the acoustic startle (GPIAS) test; assay type: in vivo, guinea pig; details: 5 mg/kg s.c.; salicylate 350 mg/kg i.p., 2 h
Excerpt: (§1) Tinnitus in guinea pigs was monitored using the gap induced inhibition of the acoustic startle (GPIAS) test (see FIG. 4). GPIAS is reduced when tinnitus was present; see Berger, J. I. et al. Effects of the cannabinoid CB1 agonist ACEA on salicylate ototoxicity, hyperacusis and tinnitus in guinea pigs. Hearing research, (2017), and Coomber, B. et al. Neural changes accompanying tinnitus following unilateral acoustic trauma in the guinea pig. Eur J Neurosci 40, 2427-2441, (2014).
In FIG. 4, sound stimulus (above) and corresponding pinna reflex (below) are shown in freely moving guinea pigs. Stimuli with no gap and gap are presented in a randomised order. Traces contaminated by movement (the upper trace in “no gap”) were removed before analysis.
Tinnitus was induced within 1-2 hours in humans by high doses of salicylate. A similar short-term tinnitus model was implemented in guinea pigs by i.p. injection of salicylate. In all animals, salicylate caused behavioural inhibition of GPIAS (see bar 2 in FIG. 5).
Salicylate (350 mg/kg, i.p.) impairs behavioural gap detection 2 h after salicylate administration (see bar 2 in of FIG. 5). Gap detection was restored by blocking HCN channels with ivabradine (5 mg/kg, s.c.).

[4] = test system: guinea pigs with noise-exposure induced tinnitus; experiment: Noise-exposure tinnitus model, GPIAS test; assay type: in vivo, guinea pig
Excerpt: as §1
The noise-exposure model is more clinically relevant than the salicylate model, as it parallels a common cause of tinnitus in humans. A second important point is that it is long-term, while tinnitus induced by salicylate is rapidly reversed following salicylate exposure.
GPIAS returns following drug wash-out (see bar D in FIG. 6).

[5] = Evaluation of CNS penetration: ivabradine in plasma, brain and auditory nerve; assay type: in vivo; details: guinea pig, brain (somatosensory cortex) / plasma, other: injection; 30 min after injection; read-out: amount detected in brain, % of plasma level
Excerpt: Ratios of total concentrations in preliminary experiments for plasma:brain:auditory nerve were 1:0.12:0.57 (n=2). The small amount (12% of plasma level) detected in brain is largely accounted for by the presence of ivabradine within the vascular supply of the brain. […] Pain 155, 1708-1719, (2014).

[6] = test system: mice (hearing thresholds); assay type: in vivo; details: adult mice, tone pulses 3 kHz to 42 kHz; 20 mg/kg ip
[7] = test system: mouse models of neuropathic pain; details: nerve injury, cancer chemotherapy and diabetic neuropathy models; cited from earlier work
[8] = test system: mouse model of diabetic neuropathy; details: in vivo; cited from earlier work

Row | Structure (SMILES) | IC50 [1] [µM] | mechanical analgesic effect (mechanical pain threshold, von Frey) ([2]; 1 mg/kg i.p., day 5 after partial sciatic nerve ligation, operated hind paw) | hyperalgesia in contralateral (unoperated) hind paw ([2]; i.p., mice after partial sciatic nerve ligation) | behavioural gap detection (GPIAS) after salicylate [3] | reduced GPIAS following noise exposure ([4]; 5 mg/kg s.c., unilateral noise exposure 110 dB, 1 h, 8 weeks prior) | effect on GPIAS in noise-exposed guinea pigs showing no behavioural evidence of tinnitus ([4]; control experiments, n=3) | Kp at 30 min [5] | ABR threshold or latency versus untreated [6] | analgesia in mouse models of neuropathic pain [7] | analgesia in mouse model of diabetic neuropathy [8]
1 | Cc1ccc(C#N)nc1C[C@H](N)c1ncccc1-c1noc2ccccc12 [Example 4, (S)-6-{2-Amino-2-[3-(benzo[d]isoxazol-3-yl)pyridine-2-yl]ethyl}-5-methylpyridin-2-carbonitrile hydrochloride] | 5.2 | full analgesia | No hyperalgesia observed |  |  |  |  |  |  | 
2 | COc1cc2c(cc1OC)CC(=O)N(CCCN(C)C[C@H]1Cc3cc(OC)c(OC)cc31)CC2 [ivabradine] |  |  |  | restored | rapidly and completely reversed | without effect | 0.12 | no significant difference in ABR threshold or latency | effective analgesic | complete analgesia

From patent US20240174663A1, “PYRIMIDINE OR PYRIDINE DERIVATIVES USEFUL AS HCN2 MODULATORS” (King's College London, priority 2021, published 2024)
